US20240150293A1, “SPIROCYCLOHEXANE DERIVATIVES, PHARMACEUTICAL COMPOSITIONS CONTAINING THEM AND THEIR USES AS ANTI-APOPTOTIC INHIBITORS” (LES LABORATOIRES SERVIER, priority 2021, published 2024)

What was measured:
[1] = test system: H929 multiple myeloma tumor line; assay: In vitro cytotoxicity, MTT assay (Example B, Method A); assay type: cell-based; details: Homo sapiens, NCI-H929, 48 h, H929 cells, 48 hours exposure, read-out: C50
Description: The cytotoxicity studies were carried out on the H929 multiple myeloma tumor line.
The cells are distributed onto microplates and exposed to the test compounds for 48 hours. The cell viability is then quantified by a colorimetric assay, the Microculture Tetrazolium Assay (Carmichael et al, Cancer Res. 1987, 47, 939-942).
The results are expressed in C50 which means concentration corresponding to […] of effect/inhibition.

Mcl-1 protein = Mcl-1 protein (UniProtKB Q07820) (Homo sapiens (Human), UniProt Q07820); assay: Inhibition of Mcl-1 by the fluorescence polarisation assay (Example A, Method A); assay type: binding; details: fluorescence polarization assay
Sequence of Mcl-1 protein (Q07820 whole entry): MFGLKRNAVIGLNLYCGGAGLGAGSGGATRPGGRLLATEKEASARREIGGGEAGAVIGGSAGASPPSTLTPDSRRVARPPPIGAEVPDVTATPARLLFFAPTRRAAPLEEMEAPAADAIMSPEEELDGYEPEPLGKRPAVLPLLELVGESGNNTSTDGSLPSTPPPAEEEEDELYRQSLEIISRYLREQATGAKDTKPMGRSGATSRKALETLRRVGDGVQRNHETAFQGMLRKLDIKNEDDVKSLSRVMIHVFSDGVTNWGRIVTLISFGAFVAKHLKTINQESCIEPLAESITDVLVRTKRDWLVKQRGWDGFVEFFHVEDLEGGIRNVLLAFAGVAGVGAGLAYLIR
In short: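 Protein (5 nM) and fluorescein-tagged peptide tracer (1 nM) incubated with 11-point compound series for 2 h at room temperature in HEPES/NaCl/Tween 20 buffer, pH 7.4, 5% DMSO. Displacement read as decrease in polarisation; IC50 fitted by 4-parameter logistic, converted to Ki (cKi or eKi).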

Row | SMILES | Ki (Mcl-1 protein) | IC50 [1]
1 | COc1ccc2c(c1)[C@]1(CC2)CC[C@](Nc2cccc(Br)c2)(C(=O)O)CC1 [Example 61, (1r,4s)-4-(3-bromoanilino)-6′-methoxy-2′,3′-dihydrospiro[cyclohexane-1,1′-indene]-4-carboxylic acid] | 358 nM | 30 µM
2 | C[C@@H]1Cc2ccccc2[C@]12CC[C@@](Nc1cccc(Br)c1)(C(=O)O)CC2 [Example 144, (1r,2′R,4R)-4-(3-bromoanilino)-2′-methyl-2′,3′-dihydrospiro[cyclohexane-1,1′-indene]-4-carboxylic acid] | 182 nM | 30 µM
3 | CCC1Cc2ccccc2C12CCC(Nc1cccc(Br)c1)(C(=O)O)CC2 (centres unmarked) [Example 147, 4-(3-bromoanilino)-2′-ethyl-2′,3′-dihydrospiro[cyclohexane-1,1′-indene]-4-carboxylic acid] | 816 nM | 30 µM
4 | O=C(O)[C@]1(Nc2cccc(Cl)c2)CC[C@]2(CC1)C(C#CCOc1ccccc1)=Cc1ccccc12 [Example 172, (1s,4s)-4-(3-chloroanilino)-2′-(3-phenoxyprop-1-yn-1-yl)spiro[cyclohexane-1,1′-indene]-4-carboxylic acid] | 55.8 nM | 18.7 µM
5 | O=C(O)[C@]1(Nc2cccc(Cl)c2)CC[C@]2(CC1)C(CCOc1ccnc(F)c1)=Cc1ccccc12 [Example 191, (1r,4r)-4-(3-chloroanilino)-2′-{2-[(2-fluoropyridin-4-yl)oxy]ethyl}spiro[cyclohexane-1,1′-indene]-4-carboxylic acid] | 69.7 nM | 5.72 µM
6 | O=C(O)[C@]1(Nc2cccc(Cl)c2)CC[C@]2(CC1)C(CCOc1cccc3[nH]ccc13)=Cc1ccccc12 [Example 192, (1r,4r)-4-(3-chloroanilino)-2′-{2-[(1H-indol-4-yl)oxy]ethyl}spiro[cyclohexane-1,1′-indene]-4-carboxylic acid] | 61.5 nM | 4.19 µM
7 | O=C(O)[C@]1(Nc2cccc(Cl)c2)CC[C@@]2(CC1)c1ccccc1C[C@H]2c1cccc(Oc2ccccc2)c1 [Example 323, (1r,2′S,4S)-4-(3-chloroanilino)-2′-(3-phenoxyphenyl)-2′,3′-dihydrospiro[cyclohexane-1,1′-indene]-4-carboxylic acid] | 106 nM | 10.5 µM
8 | O=C(O)[C@]1(Nc2cccc(Cl)c2)CC[C@@]2(CC1)c1ccccc1C[C@H]2c1cccc(OCc2ccccc2)c1 [Example 332, (1r,2′S,4S)-2′-[3-(benzyloxy)phenyl]-4-(3-chloroanilino)-2′,3′-dihydrospiro[cyclohexane-1,1′-indene]-4-carboxylic acid] | 475 nM | 16.4 µM
9 | O=C(O)[C@]1(Nc2cccc(Cl)c2)CC[C@@]2(CC1)c1ccccc1C[C@H]2c1ccc(Oc2ccccc2)cc1 [Example 358, (1r,2′S,4S)-4-(3-chloroanilino)-2′-(4-phenoxyphenyl)-2′,3′-dihydrospiro[cyclohexane-1,1′-indene]-4-carboxylic acid] | 62.2 nM | 7.43 µM
10 | O=C(O)[C@]1(Nc2cccc(Cl)c2)CC[C@]2(CC1)C(c1cccc(OCc3ccncc3)c1)=Cc1ccccc12 [Example 362, (1s,4s)-4-(3-chloroanilino)-2′-{3-[(pyridin-4-yl)methoxy]phenyl}spiro[cyclohexane-1,1′-indene]-4-carboxylic acid] | 174 nM | 21.6 µM
11 | O=C(O)[C@]1(Nc2cccc(Cl)c2)CC[C@@]2(CC1)c1ccccc1CC2CCCOc1ccncc1 (some centres unmarked) [Example 426, (1r,4r)-4-(3-chloroanilino)-2′-{3-[(pyridin-4-yl)oxy]propyl}-2′,3′-dihydrospiro[cyclohexane-1,1′-indene]-4-carboxylic acid] | 55.3 nM | 16.5 µM
12 | O=C(O)[C@]1(Nc2cccc(Cl)c2)CC[C@@]2(CC1)c1ccccc1C[C@@H]2CCCOc1ccnc2ccsc12 [Example 440, (1r,2′S,4S)-4-(3-chloroanilino)-2′-{3-[(thieno[3,2-b]pyridin-7-yl)oxy]propyl}-2′,3′-dihydrospiro[cyclohexane-1,1′-indene]-4-carboxylic acid] | 47 nM | 3.48 µM
13 | O=C(O)[C@]1(Nc2cccc(Cl)c2)CC[C@@]2(CC1)c1ccccc1CC2CCCOc1ccnc2ccccc12 (some centres unmarked) [Example 444, (1r,4r)-4-(3-chloroanilino)-2′-{3-[(quinolin-4-yl)oxy]propyl}-2′,3′-dihydrospiro[cyclohexane-1,1′-indene]-4-carboxylic acid] | 85.2 nM | 5.44 µM

Further lines, with some results ahead:

Row | Ki (Mcl-1 protein) | SMILES | IC50 [1]
14 | 648 nM | O=C1c2ccccc2[C@]2(CC[C@@](Nc3cccc(Cl)c3)(C(=O)O)CC2)N1CCCOc1ccccc1 [Example 34, (1s,4s)-4-(3-chloroanilino)-3′-oxo-2′-(3-phenoxypropyl)-2′,3′-dihydrospiro[cyclohexane-1,1′-isoindole]-4-carboxylic acid] | 30 µM
15 | 332 nM | O=C(O)[C@]1(Nc2cccc(Cl)c2)CC[C@@]2(CC1)c1ccccc1CN2CCCOc1ccccc1 [Example 35, (1s,4s)-4-(3-chloroanilino)-2′-(3-phenoxypropyl)-2′,3′-dihydrospiro[cyclohexane-1,1′-isoindole]-4-carboxylic acid] | 30 µM
16 | 934 nM | O=C(O)C1(Nc2cccc(Br)c2)CCC2(CCc3ccccc32)CC1 (centres unmarked) [Example 57, 4-(3-bromoanilino)-2′,3′-dihydrospiro[cyclohexane-1,1′-indene]-4-carboxylic acid] | 30 µM
17 | 276 nM | O=C(O)[C@]1(Nc2cccc(Br)c2)CC[C@@]2(C=Cc3c(Br)cccc32)CC1 [Example 60, (1r,4r)-4′-bromo-4-(3-bromoanilino)spiro[cyclohexane-1,1′-indene]-4-carboxylic acid] | 30 µM
18 | 414 nM | C[C@H]1Cc2ccccc2[C@]12CC[C@@](Nc1cccc(Br)c1)(C(=O)O)CC2 [Example 145, (1r,2′S,4S)-4-(3-bromoanilino)-2′-methyl-2′,3′-dihydrospiro[cyclohexane-1,1′-indene]-4-carboxylic acid] | 30 µM
19 | 44.3 nM | O=C(O)[C@]1(Nc2cccc(Cl)c2)CC[C@]2(CC1)C(CCOc1ccncc1F)=Cc1ccccc12 [Example 190, (1r,4r)-4-(3-chloroanilino)-2′-{2-[(3-fluoropyridin-4-yl)oxy]ethyl}spiro[cyclohexane-1,1′-indene]-4-carboxylic acid] | 6.4 µM
20 | 247 nM | O=C(O)[C@]1(Nc2cccc(Cl)c2)CC[C@@]2(CC1)c1ccccc1C[C@H]2c1cc2ccccc2o1 [Example 337, (1r,2′R,4R)-2′-(1-benzofuran-2-yl)-4-(3-chloroanilino)-2′,3′-dihydrospiro[cyclohexane-1,1′-indene]-4-carboxylic acid] | 30 µM
21 | 159 nM | O=C(O)[C@]1(Nc2cccc(Cl)c2)CC[C@]2(CC1)C(c1ccc(Oc3ccccc3)cc1)=Cc1ccccc12 [Example 341, (1s,4s)-4-(3-chloroanilino)-2′-(4-phenoxyphenyl)spiro[cyclohexane-1,1′-indene]-4-carboxylic acid] | 9.26 µM
22 | 227 nM | O=C(O)[C@]1(Nc2cccc(Cl)c2)CC[C@]2(CC1)C(c1cccc(OCc3cccnc3)c1)=Cc1ccccc12 [Example 363, (1s,4s)-4-(3-chloroanilino)-2′-{3-[(pyridin-3-yl)methoxy]phenyl}spiro[cyclohexane-1,1′-indene]-4-carboxylic acid] | 30 µM
23 | 150 nM | O=C(O)[C@]1(Nc2cccc(Cl)c2)CC[C@]2(CC1)C(CCCCc1ccccc1)=Cc1ccccc12 [Example 393, (1r,4r)-4-(3-chloroanilino)-2′-(4-phenylbutyl)spiro[cyclohexane-1,1′-indene]-4-carboxylic acid] | 12 µM
24 | 155 nM | O=C(O)[C@]1(Nc2cccc(Cl)c2)CC[C@]2(CC1)C(COCCc1ccccc1)=Cc1ccccc12 [Example 409, (1s,4s)-4-(3-chloroanilino)-2′-[(2-phenylethoxy)methyl]spiro[cyclohexane-1,1′-indene]-4-carboxylic acid] | 30 µM
25 | 68.6 nM | O=C(O)[C@]1(Nc2cccc(Cl)c2)CC[C@@]2(CC1)c1ccccc1C[C@H]2CCCOc1ccnc2ccsc12 [Example 439, (1r,2′R,4R)-4-(3-chloroanilino)-2′-{3-[(thieno[3,2-b]pyridin-7-yl)oxy]propyl}-2′,3′-dihydrospiro[cyclohexane-1,1′-indene]-4-carboxylic acid] | 3.88 µM
26 | 107 nM | O=C(O)[C@]1(Nc2cccc(Cl)c2)CC[C@]2(CC1)C(CCCOc1ccnc3ccsc13)=Cc1ccccc12 [Example 442, (1r,4r)-4-(3-chloroanilino)-2′-{3-[(thieno[3,2-b]pyridin-7-yl)oxy]propyl}spiro[cyclohexane-1,1′-indene]-4-carboxylic acid] | 5.79 µM
27 | 75.3 nM | O=C(O)[C@]1(Nc2cccc(Cl)c2)CC[C@@]2(CC1)c1ccccc1CC2CCCOc1ccnc2[nH]ccc12 (some centres unmarked) [Example 445, (1r,4r)-4-(3-chloroanilino)-2′-{3-[(1H-pyrrolo[2,3-b]pyridin-4-yl)oxy]propyl}-2′,3′-dihydrospiro[cyclohexane-1,1′-indene]-4-carboxylic acid] | 5.35 µM
28 | 65.4 nM | Cc1cnccc1OCCC[C@@H]1Cc2ccccc2[C@]12CC[C@@](Nc1cccc(Cl)c1)(C(=O)O)CC2 [Example 448, (1r,2′R,4R)-4-(3-chloroanilino)-2′-{3-[(3-methylpyridin-4-yl)oxy]propyl}-2′,3′-dihydrospiro[cyclohexane-1,1′-indene]-4-carboxylic acid] | 10.5 µM
